Data taken from ChEMBL document CHEMBL4190400, “Identification of Potent Ebola Virus Entry Inhibitors with Suitable Properties for in Vivo Studies” (J Med Chem, 2018).
In brackets after ≈: the same amount, converted by molar mass.

What was measured:
Ebolavirus [1] = experiment: Antiviral activity against Ebola virus - Mayinga, Zaire, 1976 infected in human HeLa cells assessed as inhibition of viral infection pretreated for 2 hrs before viral infection and measured after 48 hrs by EboV GP immunostaining based method; assay type: functional, cell-based; conditions: Orthoebolavirus
Ebolavirus [2] = experiment: (§1) Antiviral activity against recombinant VSV pseudotyped Ebolavirus expressing M-GFP infected in African green monkey Vero E6 cells assessed as inhibition of viral infection pre-incubated for 2 hrs before infection and measured after 8 to 12 hrs in presence of 50% NHS by fluorescence microscopic method; assay type: functional, Vero C1008
Ebolavirus [3] = experiment: Antiviral activity against Ebolavirus isolate Makona infected in human HeLa cells assessed as inhibition of viral infection pretreated for 2 hrs before viral infection and measured after 48 hrs by EboV GP immunostaining based method; assay type: functional, cell-based; conditions: Orthoebolavirus
Ebolavirus [4] = experiment: Antiviral activity against Ebolavirus isolate Kikwit infected in human HeLa cells assessed as inhibition of viral infection pretreated for 2 hrs before viral infection and measured after 48 hrs by EboV GP immunostaining based method; assay type: functional, cell-based; conditions: Orthoebolavirus
[5] = Stability of the compound in mouse plasma at 10 uM assessed as compound remaining after 4 hrs by LC-MS/MS analysis; assay type: ADME, cell-free; conditions: read-out: Stability
[6] = Half life in mouse liver microsomes at 1 uM after 60 mins in presence of NADPH and ritonavir by LC-MS/MS analysis; assay type: ADME, microsome; conditions: with ritonavir (concentration not stated)
[7] = Tmax in mouse at 50 mg/kg, po administered via gavage cotreated with 50 mg/kg ritonavir; assay type: ADME, organism-based; conditions: in vivo
[8] = Cmax in mouse at 50 mg/kg, po administered via gavage cotreated with 50 mg/kg ritonavir; assay type: ADME, organism-based; set-up: dose 50 mg/kg, route oral; conditions: in vivo
[9] = Concentration in mouse plasma at 50 mg/kg, po administered via gavage cotreated with 50 mg/kg ritonavir; assay type: ADME, organism-based; conditions: in vivo
[10] = AUClast in mouse at 50 mg/kg, po administered via gavage cotreated with 50 mg/kg ritonavir; assay type: ADME, organism-based; set-up: dose 50 mg/kg, route oral, time 0 - last; conditions: in vivo
[11] = Half life in mouse at 50 mg/kg, po administered via gavage cotreated with 50 mg/kg ritonavir; assay type: ADME, organism-based; conditions: in vivo
[12] = Clearance in mouse at 50 mg/kg, po administered via gavage cotreated with 50 mg/kg ritonavir; assay type: ADME, organism-based; conditions: in vivo
Ebolavirus [13] = experiment: as §1, with “activity against VSV pseudotyped” for “activity against recombinant VSV pseudotyped”, “presence of 10% FBS and 50% NHS” for “presence of 50% NHS”; assay type: functional; conditions: Orthoebolavirus, Vero C1008
physchem = conditions: phosphate buffered saline, pH 7.4
in vitro = conditions: mouse, plasma
Ebolavirus [14] = experiment: Antiviral activity against VSV pseudotyped Ebolavirus expressing M-GFP infected in African green monkey Vero E6 cells assessed as inhibition of viral infection pre-incubated for 2 hrs before infection and measured after 8 to 12 hrs by fluorescence microscopic method; assay type: functional, Vero C1008
[15] = Half life in mouse liver microsomes at 1 uM after 60 mins in presence of NADPH by LC-MS/MS analysis; assay type: ADME, microsome
[16] = Half life in human liver microsomes at 1 uM after 60 mins in presence of NADPH by LC-MS/MS analysis; assay type: ADME, microsome

## CS(=O)(=O)c1ccc(CNc2ccc(Cl)cc2CN2CCN(C(=O)CNC(=O)CC3CCC(F)(F)CC3)CC2)cc1
Ebolavirus [1]
  EC50: 12 nM
Ebolavirus [2]; Orthoebolavirus, Vero C1008
  IC50: 28 nM
Ebolavirus [3]
  EC50: 52 nM
Ebolavirus [4]
  EC50: 33 nM

## CS(=O)(=O)c1ccc(COc2ccc(Cl)cc2CN2CCN(C(=O)CNC(=O)C3CC34CCC(F)(F)CC4)CC2)cc1 (racemic)
Ebolavirus [1]
  EC50: 210 nM
Ebolavirus [2]; Orthoebolavirus, Vero C1008
  IC50: 35 nM
Ebolavirus [3]
  EC50: 140 nM
Ebolavirus [4]
  EC50: 420 nM

## CS(=O)(=O)c1ccc(COc2ccc(Cl)cc2CN2CCN(C(=O)CNC(=O)C3CC34CCC(F)(F)CC4)CC2)cc1 (stereo in doubt; 3-22)
[5]
  remaining at 4 h, 10 µM: 69%
[6]
  half-life at 1 µM: > 2 h
[7]
  Tmax: 4 h
[8]
  Cmax: 10.4 µM
[9]
  concentration: 4.7 µM
[10]
  AUC(0-t): 116 µM·h
[11]
  half-life: 3.2 h
[12]
  CL/F: 11.9 mL/min/kg
Ebolavirus [13]
  IC50: 93 nM
Ebolavirus [2]; vero c1008
  IC50: 19 nM
physchem
  solubility kinetic: 10 µM (≈ 6.24 µg/mL)
In vitro
  fraction unbound at 6 h: 0.024

## O=C(CC1CCC(F)(F)CC1)NCC(=O)N1CCN(Cc2cc(Cl)cc(F)c2O)CC1
Ebolavirus [14]; Orthoebolavirus, Vero C1008
  IC50: 2800 nM

## [2H]C([2H])(c1cc(Cl)ccc1NCc1ccc(S(C)(=O)=O)cc1)N1CCN(C(=O)CNC(=O)C2CC23CCC(F)(F)CC3)CC1 (single isomer, unassigned; (-))
[5]
  remaining at 4 h, 10 µM: 72%
[15]
  half-life at 1 µM: 2 min
[6]
  half-life at 1 µM: 1.45 h
[16]
  half-life at 1 µM: 1 min
[7]
  Tmax: 7.3 h
[8]
  Cmax: 7.4 µM
[9]
  concentration: 5.7 µM
[10]
  AUC(0-t): 108 µM·h
[11]
  half-life: 1.7 h
[12]
  CL/F: 12.5 mL/min/kg
Ebolavirus [13]
  IC50: 109 nM
Ebolavirus [2]; Orthoebolavirus, Vero C1008
  IC50: 21 nM
physchem
  solubility kinetic: 4 µM (≈ 2.5 µg/mL)
In vitro
  fraction unbound at 6 h: 0.002

## O=C(CC12CC3CC(CC(C3)C1)C2)NCC(=O)N1CCN(Cc2ccccc2OCc2ccc(Br)cc2)CC1
Ebolavirus [14]; Orthoebolavirus, Vero C1008
  IC50: 220 nM

## COC(=O)c1ccc(COc2ccc(Cl)cc2CN2CCN(C(=O)CNC(=O)C(F)(F)C(F)F)CC2)cc1
Ebolavirus [14]; Orthoebolavirus, Vero C1008
  IC50: 160 nM

## O=C(CC12CC3(F)CC(F)(CC(F)(C3)C1)C2)NCC(=O)N1CCN(Cc2ccccc2OCc2ccc(Br)cc2)CC1
[15]
  half-life at 1 µM: 1 min
Ebolavirus [14]; Orthoebolavirus, Vero C1008
  IC50: 200 nM

## Nc1ccc(Br)cc1CN1CCN(C(=O)CNC(=O)CC2CCC(F)(F)CC2)CC1
Ebolavirus [14]; Orthoebolavirus, Vero C1008
  IC50: 1740 nM

## O=C(CC12CC3CC(CC(C3)C1)C2)NCC(=O)N1CCN(Cc2cc(Br)ccc2Cl)CC1
Ebolavirus [14]; Orthoebolavirus, Vero C1008
  IC50: 2200 nM

## Nc1ccc(C2CC2)cc1CN1CCN(C(=O)CNC(=O)C2CC23CCC(F)(F)CC3)CC1 (racemic)
Ebolavirus [14]; Orthoebolavirus, Vero C1008
  IC50: 4200 nM

## O=C(CC12CC3CC(CC(C3)C1)C2)NCC(=O)N1CCN(Cc2c(F)ccc(Cl)c2F)CC1
Ebolavirus [14]; Orthoebolavirus, Vero C1008
  IC50: 1350 nM

## O=C(CC12CC3CC(CC(C3)C1)C2)NCC(=O)N1CCN(Cc2cc(Br)ccc2F)CC1
Ebolavirus [14]; Orthoebolavirus, Vero C1008
  IC50: 1200 nM

## COC(=O)c1ccc(COc2ccccc2CN2CCN(C(=O)CNC(=O)CC3CC(F)(F)C3)CC2)cc1
Ebolavirus [14]; Orthoebolavirus, Vero C1008
  IC50: 300 nM

## Nc1ccc(Cl)cc1CN1CCN(C(=O)CNC(=O)C2CC23CCC(F)(F)CC3)CC1 (racemic)
Ebolavirus [14]; Orthoebolavirus, Vero C1008
  IC50: 100 nM

## O=C(CC1CCC(F)(F)CC1)NCC(=O)N1CCN(Cc2cc(Br)ccc2O)CC1
Ebolavirus [14]; Orthoebolavirus, Vero C1008
  IC50: 790 nM

## [2H]C([2H])(c1cc(Cl)ccc1N)N1CCN(C(=O)CNC(=O)C2CC23CCC(F)(F)CC3)CC1 (stereo in doubt; 3-19)
Ebolavirus [14]; vero c1008
  IC50: 180 nM

## CS(=O)(=O)c1ccc(CNc2ccc(Cl)cc2CN2CCN(C(=O)CNC(=O)C3CC34CCC(F)(F)CC4)CC2)cc1 (racemic)
Ebolavirus [1]
  EC50: 9 nM
Ebolavirus [2]; Orthoebolavirus, Vero C1008
  IC50: 40 nM
Ebolavirus [3]
  EC50: 17 nM
Ebolavirus [4]
  EC50: 35 nM

## COC(=O)c1cccc(-c2ccc(Cl)cc2CN2CCN(C(=O)CNC(=O)CC34CC5CC(CC(C5)C3)C4)CC2)c1
Ebolavirus [14]; Orthoebolavirus, Vero C1008
  IC50: 250 nM
